Assay results published in PMC9234671, “Molecular determinants of αVβ5 localization in flat clathrin lattices – role of αVβ5 in cell adhesion and proliferation” (Journal of Cell Science, 2022).
Entries after “also recorded” stand apart in the source; their conditions may differ. Values belong to the substance of their own block, whether it stands above or below them.

Legend:
full-length human ARH = molecular target: T1, full-length human ARH (Homo sapiens, UniProt Q5SW96); experiment: Microscale thermophoresis (MST), ARH; assay type: binding; conditions: concentration range tested up to 50 µM for β1
T1 construct: The full-length human ARH gene was cloned into the pETNKI-6xhis-3C-LIC vector; made in house; host or cells: E. coli BL21(DE3)
T1 sequence (Q5SW96 1-308): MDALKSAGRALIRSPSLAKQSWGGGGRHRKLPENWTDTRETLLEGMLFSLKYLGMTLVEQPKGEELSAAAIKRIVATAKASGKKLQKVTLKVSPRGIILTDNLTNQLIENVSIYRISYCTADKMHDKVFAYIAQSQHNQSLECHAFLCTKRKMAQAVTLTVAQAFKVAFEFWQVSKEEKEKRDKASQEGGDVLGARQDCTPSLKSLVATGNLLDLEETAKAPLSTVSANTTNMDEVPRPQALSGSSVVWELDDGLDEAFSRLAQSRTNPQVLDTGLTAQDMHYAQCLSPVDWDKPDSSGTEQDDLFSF
From the text: (§1) Fig. 2. Adaptor protein binding to integrin β subunits. (A) Colocalization of integrin chimeras fused to the promiscuous biotin ligase BirA* (green in merge) with vinculin (red; left panels) or clathrin (red; right panels) in PA-JEB/β4 keratinocytes. Actin is shown in blue. Nuclei are stained with DAPI (cyan). Scale bars: 20 μm. (B) Representative western blots of BioID assays performed using the integrin chimeras shown in A. Quantifications of ARH, Numb and talin signal intensities normalized to streptavidin-HRP levels are shown (n=3; bars show mean±s.d.). (C) Representative western blots of pulldown assays (from two repeats) using synthetic integrin β cytoplasmic domains in RAC-11P cell lysates.
The full-length human ARH gene was cloned into the pETNKI-6xhis-3C-LIC vector ([Luna-Vargas et al., 2011]) and 6xhis–ARH protein was produced in Bl21(DE3) E. coli cells. Cells were grown at 37°C until an optical density at 600 nm (OD600) of 0.6 was reached. Temperature was reduced to 30°C and protein was expressed upon induction with 0.4 mM IPTG for 3.5 h. Cells were harvested and resuspended in lysis buffer (20 mM HEPES, pH 7.5, 200 mM NaCl, 1 mM TCEP and 5 μg ml^−1 DNase). After sonication, cell debris and insoluble proteins were removed by centrifugation (21,000 g for 30 min). 6xhis–ARH was purified from the soluble fraction using nickel Sepharose beads and eluted in 20 mM HEPES, pH 7.5, 200 mM NaCl, 1 mM TCEP and 250 mM imidazole. Fractions containing 6xhi–ARH were further purified on a SEC650 size exclusion column (Bio-Rad), equilibrated with 20 mM HEPES, pH 7.5, 100 mM NaCl and 1 mM TCEP.
(§2) All MST measurements were performed on a Monolith NT.115 red-blue (Nanotemper, Munich, Germany) using premium-coated capillaries to reduce non-specific interaction of the proteins with the glass surface. Both interaction partners (ligand and receptor) were transferred into MST buffer (20 mM Tris-HCl pH 7.5, 200 mM sodium chloride, 1 mM TCEP and 0.05% Tween-20) to avoid artifacts derived from buffer mismatches. […] Data was analyzed using the MO Affinity Analysis Software (Nanotemper).

ARH = experiment: Peptide pulldown, ARH; assay type: binding; conditions: desthiobiotin tail peptide on streptavidin beads, RAC-11P lysate, 4°C, 4 h; western blot; two repeats
Experimental: (§3) Peptide pulldowns were carried out as previously described ([Böttcher et al., 2012]) with the mouse β1 wild-type cytoplasmic tail peptide ([…]-OH) and a scrambled peptide ([…]-OH), mouse β3 wild-type tail peptide ([…]-OH), mouse β5 wild-type tail peptide ([…]-OH), β5 Δ8aa tail peptide ([…]-OH) and scrambled peptide […].
(§4) The tail peptides were synthesized de novo with a desthiobiotin on the N-terminus, coupled to Dynabeads MyOne streptavidin C1 (10 mgml^−1, Invitrogen) and incubated with RAC-11P cell lysates (prepared with M-PER reagent, Thermo Fisher Scientific) at 4°C with rotation for 4 h. After three washes with wash buffer (M-PER diluted 1:1 with PBS), bound proteins were eluted in 2× Laemmli buffer at 95°C for 5 min and separated on an 8% SDS-PAGE gel.

Numb-PTB (20-175) = molecular target: T2, Numb-PTB (20-175) (Homo sapiens, UniProt P49757); experiment: Microscale thermophoresis (MST), Numb; assay type: binding; conditions: concentration range tested up to 50 µM for β1
T2 construct: A pETNKI-6xhis-3C-Numb-PTB (20-175) construct was expressed in Rosetta2 (DE3) cells; 6xHis-3C (N, cleaved yes); made in house; host or cells: E. coli Rosetta2 (DE3)
T2 sequence (P49757 20-175): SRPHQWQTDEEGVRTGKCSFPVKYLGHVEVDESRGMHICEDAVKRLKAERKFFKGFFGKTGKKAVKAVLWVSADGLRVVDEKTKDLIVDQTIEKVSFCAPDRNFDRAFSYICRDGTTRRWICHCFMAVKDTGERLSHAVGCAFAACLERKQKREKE
From the text: as §1
A pETNKI-6xhis-3C-Numb-PTB (20-175) construct was expressed in Rosetta2 (DE3) cells for 18 h at 20°C. Cells were lysed (25 mM Tris-HCl pH 8.0, 10 mM imidazole, 200 mM NaCl, 1 mM TCEP, 5 μg/ml DNase) and sonicated, after which insoluble proteins and cell debris were removed by centrifugation (21,000 g for 30 min at 4°C). Soluble lysate was applied to a nickel Sepharose column and beads were washed with wash buffer (lysis buffer without DNase) before protein was eluted in wash buffer supplemented with 250 mM imidazole. The 6xhis tag was cleaved off by his-3C protease during dialysis against 25 mM Tris-HCl pH 8.0, 100 mM NaCl, 1 mM TCEP, 16 h at 4°C. Elution fractions were pooled, diluted with six volumes of 20 mM HEPES pH 7.5, 1 mM TCEP and applied to a 1 ml Resource S cation-exchange column (Cytiva). Protein was eluted in a NaCl gradient (50–700 mM) in 25 mM HEPES (pH 7.5). 6xhis-Numb-PTB was concentrated and further purified by size-exclusion chromatography (SEC70 column, Bio-Rad) in 25 mM Tris-HCl pH 8.0, 200 mM NaCl and 1 mM TCEP.
All MST measurements were performed on a Monolith NT.115 red-blue (Nanotemper, Munich, Germany) using premium-coated capillaries to reduce non-specific interaction of the proteins with the glass surface. […] Data was analyzed using the MO Affinity Analysis Software (Nanotemper).

kindlin-1/2 = experiment: Peptide pulldown, kindlin-1/2; assay type: binding; conditions: desthiobiotin tail peptide on streptavidin beads, RAC-11P lysate, 4°C, 4 h; western blot; two repeats
Experimental: as §3, §4

Numb = experiment: Peptide pulldown, Numb; assay type: binding; conditions: desthiobiotin tail peptide on streptavidin beads, RAC-11P lysate, 4°C, 4 h; western blot; two repeats
Experimental: as §3, §4

talin = experiment: Peptide pulldown, talin; assay type: binding; conditions: desthiobiotin tail peptide on streptavidin beads, RAC-11P lysate, 4°C, 4 h; western blot; two repeats
Experimental: as §3, §4

kindlin-2 = experiment: Microscale thermophoresis (MST), kindlin-2; assay type: binding; conditions: titration of kindlin-2 to 200 nM ATTO488-labeled cytoplasmic tail peptide; n≥3
Experimental: Kindlin-2 was expressed and purified as described in [Böttcher et al. (2017)]. Briefly, kindlin constructs were cloned into pCoofy17 ([Scholz et al., 2013]), which adds an N-terminal His10-Sumo tag and expressed soluble in E. coli Rosetta at 18°C overnight. After purification by immobilized-metal affinity chromatography (IMAC) in high-salt TBS buffer (20 mM Tris, pH 7.5, 500 mM NaCl, 1 mM TCEP), the Sumo tag was removed by SenP2 (obtained from MPIB Biochemistry Core Facility) digest overnight and the protein was further purified by SEC using TBS (20 mM Tris-HCl pH 7.5, 200 mM NaCl, 1 mM TCEP) containing 5% glycerol as running and storage buffer. After the final chromatography, the purity, integrity and identity of recombinant kindlin-2 and talin-1 head domain were controlled by UV spectrum, SDS-PAGE, high-resolution total mass and dynamic light scattering (DLS).
as §2, with “(Nanotemper). […]” for “(Nanotemper).”

KANK-2 = experiment: Peptide pulldown, KANK-2; assay type: binding; conditions: desthiobiotin tail peptide on streptavidin beads, RAC-11P lysate, 4°C, 4 h; western blot; two repeats
Experimental: as §3, §4

SW620 cells [1] = experiment: Cell growth morphology (immunofluorescence), SW620; assay type: cell-based, human; conditions: cilengitide-treated SW620 cells cultured for 5 days on coverslips; control cells mainly formed a 2D monolayer
Experimental: (§5) Fig. 6. Integrin β5 promotes colorectal cancer cell proliferation. […] Cells were fixed after 3 days of treatment and β5 (green in merge) and vinculin (magenta) were visualized using confocal microscopy. Cell nuclei are shown in blue. Scale bars: 20 μm. (B) Cells were seeded on day 0 and proliferation was measured from day 1–5 in cells with or without cilengitide (added at day 1). (C,E) FACS plots showing the expression of β5 in SW620 (C) and HT29 (E) wild-type (WT) and β5 knockout cells. Cells stained with a secondary PE-conjugated antibody only were used as negative control (n=2). (D,F) Proliferation of SW620 and HT29 wild-type and β5 knockout cells. (G) Representative IF images showing integrin β5 (green in merge), vinculin (red), actin (blue), nuclei (cyan) in SW620 wild-type, β5-deficient, and cilengitide-treated cells that were cultured for 5 days on coverslips prior to fixation. Scale bars: 100 μm. (H,I) Proliferation of SW620 (H) and HT29 (I) wild-type and β5 knockout cells on 3.2 μg ml^−1 collagen. Results shown represent mean±s.d. of three biological replicates, of which each experiment was performed in triplicate. *P<0.05 (two-sided unpaired Student's t-test).
(§6) PA-JEB/β4 keratinocytes were seeded on glass coverslips and cultured in complete KGM medium for 24 h, and then treated with DMEM plus 10% FCS for 24 h. […]

SW620 cells [2] = experiment: Proliferation assay (Crystal Violet), SW620; assay type: cell-based, human; conditions: cilengitide added at day 1, measured day 1–5; concentration optimised per cell line, not given; three biological replicates
Experimental: as §5, with “Results shown represent mean±s.d. of three biological replicates, of which each experiment was performed in triplicate. *P<0.05 (two-sided unpaired Student's t-test).” left out
(§7) Cells were seeded at a density of 5×10^4 cells per well in a 96-well plate and treated with cilengitide or DMSO, as indicated in the figure legend. […] Cells were air-dried overnight and lysed in 2% SDS, after which the OD value of Crystal Violet at 490 nm was determined using an Epoch microplate reader equipped with Gen5 software. […]

SW480 cells = experiment: Proliferation assay (Crystal Violet), SW480; assay type: cell-based, human; conditions: cilengitide added at day 1, measured day 1–5; concentration optimised per cell line, not given; three biological replicates
Experimental: as §5, with “Results shown represent mean±s.d. of three biological replicates, of which each experiment was performed in triplicate. *P<0.05 (two-sided unpaired Student's t-test).” left out
as §7

integrin αVβ3/αVβ5 = conditions: stated as known, no reference given; cited from earlier work
From the text: The integrin β5 plays a role in breast cancer and osteosarcoma cell proliferation ([Bianchi-Smiraglia et al., 2013]; [Lock et al., 2018]). Here, we analyzed the role of integrin β5 in cell proliferation of SW620, HT29 and SW480 colorectal cancer cells, in which β5 localizes predominantly in FCLs, FAs or is distributed equally in both adhesions, respectively. Because none of these cell lines express the integrin β3 subunit (Fig. S5A), we used the integrin αVβ3/αVβ5 antagonist cilengitide as a tool to inhibit αVβ5 function. The optimal concentration for inhibition was determined for each cell li ...

HT29 cells = experiment: Proliferation assay (Crystal Violet), HT29; assay type: cell-based, human; conditions: cilengitide added at day 1, measured day 1–5; concentration optimised per cell line, not given; three biological replicates
Experimental: as §5, with “Results shown represent mean±s.d. of three biological replicates, of which each experiment was performed in triplicate. *P<0.05 (two-sided unpaired Student's t-test).” left out
as §7

[3] = test system: integrin β5 clustering in SW620, HT29 and SW480 cells; experiment: Inhibition of β5 clustering (confocal microscopy); assay type: cell-based, human; conditions: cells fixed after 3 days of cilengitide treatment
Experimental: as §5, §6

binding to kindlin by MST (kindlin-2): much higher affinity than β3 and β5
Substance: HDRREFAKFEKEKMNAKWDTGENPIYKSAVTTVVNPKYEGK-OH [β1, synthetic integrin β1 cytoplasmic tail peptide]
binding to ARH by MST (β1) (full-length human ARH): no binding; also recorded: unable to detect binding
interaction with ARH in pulldown (ARH): not β1 and β3, bind to Numb and ARH
binding to Numb by MST (β1) (Numb-PTB (20-175)): no binding; also recorded: unable to detect binding
interaction with kindlin-1/2 in pulldown (kindlin-1/2): interaction
interaction with Numb in pulldown (Numb): not β1 and β3, bind to Numb and ARH
interaction with talin in pulldown (talin): interaction
interaction with KANK-2 in pulldown (KANK-2): interaction

Substance: cilengitide (RGDFV; chains of the INN, looked up) [integrin αVβ3/αVβ5 antagonist]
growth phenotype (SW620 cells [1]): grew on top of each other
proliferation, SW620 (SW620 cells [2]): significant decrease in proliferation
proliferation, SW480 (SW480 cells): significant decrease in proliferation
integrin αVβ3/αVβ5 antagonism (integrin αVβ3/αVβ5): antagonist
proliferation, HT29 (HT29 cells): significant decrease in proliferation
inhibition of β5 clustering [3]: Inhibition of β5 clustering
